Assay results published in PubChem BioAssay AID2060336 (Molecular Pharmacology Branch, DTP, NCI, 2025).
“And” between values parts separate entries of the source, which are not always exact repeats. Equal values may be shown once.

Tested on: 958767-090-R-J1-PDC spheroid growth
Assay: Anticancer human tumor 958767-090-R-J1-PDC patient-derived head and neck squamous carcinoma cell line growth inhibition [IpAb]
Details: spheroids with HUVEC and MSC; for viability, T/C: stronger effect = lower value
Text: Combinatorial screen of targeted agents with ipatasertib and abemaciclib in multi-cell type tumor spheroids
A high-throughput screen of multi-cell type tumor spheroids was designed to identify active combinations of targeted small molecules and ipatasertib or abemaciclib. Complex spheroids include a stromal component modeled by human endothelial cells (HUVEC) and fibroblasts modeled by human mesenchymal stem cells (MSCs). The concentration ranges selected for each drug and investigational agent were based upon clinically achievable concentrations if the clinical Cmax of the agent was known.
Compounds. The drugs and investigational agents: ipatasertib (NSC767898), abemaciclib(NSC768073), selumetinib (NSC741078), trametinib (758246), adavosertib (NSC754352), everolimus (NSC733504), sapanisertib (NSC764658), vemurafenib (NSC761431), venetoclax (NSC766270), copanlisib (NSC809693), apelisib (NSC765974), palbociblib (NSC758247), vemurafenib (NSC761431), dabrafenib (NSC764134), ravoxertinib (NSC781343), BMS-387032 (NSC767048), sotorasib (NSC818433), talazoparib (NSC767125) and afursertib (NSC778305), were obtained from the National Cancer Institute (NCI) Developmental Therapeutics Program Chemical Repository. The FDA-approved anticancer drug set is available from the NCI Developmental Therapeutics Program. […] The stock solutions were prepared in dimethyl sulfoxide (DMSO, Sigma-Aldrich, St. Louis, MO, cat. D2650) at 800-fold the tested concentration and stored at -70 degrees C prior to their use. All drugs and investigational agents were tested over a range starting from a high concentration at or near the clinical Cmax and decreasing in half-log increments. If the clinical Cmax for an agent had not been determined, the highest concentration tested was 10 microM.
NCI60 Cell Culture. NCI60 cell lines were obtained from the NCI Developmental Therapeutics Program Tumor Repository. For each lot of cells, the Repository performed Applied Biosystems AmpFLSTR Identifiler testing with PCR amplification to confirm consistency with the published Identifier STR profile for each cell line. Cells were kept in continuous culture for no more than 20 passages. The optimal seeding densities for each of the cell lines at each time point assessed were determined prior to performing the concentration response studies. Briefly, the NCI60 human tumor lines were grown as monolayers in RPMI 1640 medium supplemented with 10% FBS and 2 mmol/L L-glutamine.
An additional 9 lines were from the NCI60 cell line panel including MDA-MB-231 breast carcinoma, MDA-MB-468 breast carcinoma, MCF7 breast carcinoma, Hs578T breast carcinoma, MALME-3M melanoma, SK-MEL-2 melanoma, SK-OV-3 ovarian carcinoma, DU-145 prostate carcinoma, PC-3 prostate carcinoma, all cell lines along with major genetic alterations are listed on Table 2. Pooled donor human umbilical vein endothelial cells (HUVEC, Lonza, cat. CC-2519) and human mesenchymal stem cells (hMSC, Lonza, cat. PT-2501) were purchased from Lonza (Walkersville, MD).
PDMR cell lines were grown in complete medium (DC medium): Dulbecco's modified Eagle's medium (DMEM)/F12 supplemented with 5% fetal bovine serum (FBS), 2 mM L-glutamine, 100 U/mL penicillin and 100 µg/ml streptomycin, 0.4 µg/ml hydrocortisone, 10 ng/ml epidermal growth factor (EGF) recombinant human protein, 24 µg/mL adenine, and 0.1 mg/mL primocin. During culture from frozen stock vials, PDMR cells were cultured in the same medium containing 10 µM Y-27632 (see Table 3). The PDCs were cultured in complete DMEM/F12 media without 10 microM Y-27632 dihydrochloride for at least two passages prior to the screen. The pooled donor HUVEC and hMSC were cultured in endothelial cell growth medium 2 (PromoCell, Heidelberg, Germany, cat. C-22011) and mesenchymal stem cell growth medium 2 (PromoCell, cat. C-28009), respectively. For all experiments, HUVEC and hMSC were used at passages </=5.
[…]

[1] = curve of first compound, second compound 0.01 µM
[2] = curve of first compound, second compound 0.0316 µM
[3] = curve of first compound, second compound 0.1 µM
[4] = curve of first compound, second compound 0.316 µM
[5] = curve of first compound, second compound 1 µM
[6] = second compound 0.01 µM, first compound 0.0316 µM
[7] = second compound 0.01 µM, first compound 0.1 µM
[8] = second compound 0.01 µM, first compound 0.316 µM
[9] = second compound 0.01 µM, first compound 1 µM
[10] = second compound 0.01 µM, first compound 3.16 µM
[11] = second compound 0.01 µM, first compound 10 µM
[12] = second compound 0.0316 µM, first compound 0.0316 µM
[13] = second compound 0.0316 µM, first compound 0.1 µM
[14] = second compound 0.0316 µM, first compound 0.316 µM
[15] = second compound 0.0316 µM, first compound 1 µM
[16] = second compound 0.0316 µM, first compound 3.16 µM
[17] = second compound 0.0316 µM, first compound 10 µM
[18] = second compound 0.1 µM, first compound 0.0316 µM
[19] = second compound 0.1 µM, first compound 0.1 µM
[20] = second compound 0.1 µM, first compound 0.316 µM
[21] = second compound 0.1 µM, first compound 1 µM
[22] = second compound 0.1 µM, first compound 3.16 µM
[23] = second compound 0.1 µM, first compound 10 µM
[24] = second compound 0.316 µM, first compound 0.0316 µM
[25] = second compound 0.316 µM, first compound 0.1 µM
[26] = second compound 0.316 µM, first compound 0.316 µM
[27] = second compound 0.316 µM, first compound 1 µM
[28] = second compound 0.316 µM, first compound 3.16 µM
[29] = second compound 0.316 µM, first compound 10 µM
[30] = second compound 1 µM, first compound 0.0316 µM
[31] = second compound 1 µM, first compound 0.1 µM
[32] = second compound 1 µM, first compound 0.316 µM
[33] = second compound 1 µM, first compound 1 µM
[34] = second compound 1 µM, first compound 3.16 µM
[35] = second compound 1 µM, first compound 10 µM
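Note: spheroids exposed to agents for 7 days.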
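Throughout, for viability, T/C: 100% = DMSO vehicle control wells.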

SMILES	IC50 [1]	IC50 [2]	IC50 [3]	IC50 [4]	IC50 [5]	viability, T/C [6]	viability, T/C [7]	viability, T/C [8]	viability, T/C [9]	viability, T/C [10]	viability, T/C [11]	viability, T/C [12]	viability, T/C [13]	viability, T/C [14]	viability, T/C [15]	viability, T/C [16]	viability, T/C [17]	viability, T/C [18]	viability, T/C [19]	viability, T/C [20]	other results
C=CC(=O)N1CCN(c2nc(=O)n(-c3c(C)ccnc3C(C)C)c3nc(-c4c(O)cccc4F)c(F)cc23)C(C)C1 (configuration not stated) + CCN1CCN(Cc2ccc(Nc3ncc(F)c(-c4cc(F)c5nc(C)n(C(C)C)c5c4)n3)nc2)CC1	8.41 µM	7.73 µM	8.02 µM	8.18 µM	9.88 µM	96.3%	84.9%	94.4%	94.8%	81.9%	44.3%	82.4%	84.8%	90.7%	92.3%	83.5%	40%	72.2%	70.2%	75.1%	viability, T/C [21]: 94.2%; viability, T/C [22]: 81.4%; viability, T/C [23]: 43.3%; viability, T/C [24]: 77%; viability, T/C [25]: 55.1%; viability, T/C [26]: 72.5%; viability, T/C [27]: 94.1%; viability, T/C [28]: 75.9%; viability, T/C [29]: 44.9%; viability, T/C [30]: 89.7%; viability, T/C [31]: 82.4%; viability, T/C [32]: 94.6%; viability, T/C [33]: 96.1%; viability, T/C [34]: 87.7%; viability, T/C [35]: 49.5%
COc1c(OCCCN2CCOCC2)ccc2c3n(c(=NC(=O)c4cnc(N)nc4)nc12)CCN3																					viability, T/C (compound 0.00316 µM): 64.4% and 71.9%; viability, T/C (compound 0.01 µM): 50% and 60.7%; viability, T/C (compound 0.0316 µM): 34.6% and 39.4%; viability, T/C (compound 0.1 µM): 15.9% and 25.2%; viability, T/C (compound 0.316 µM): 8.95% and 9.82%; viability, T/C (compound 1 µM): 4.88% and 4.05%; IC50 (curve of compound): 0.0107 µM and 0.0182 µM
CC1(C)CCC(CN2CCN(c3ccc(C(=O)NS(=O)(=O)c4ccc(NCC5CCOCC5)c([N+](=O)[O-])c4)c(Oc4cnc5[nH]ccc5c4)c3)CC2)=C(c2ccc(Cl)cc2)C1 + CCN1CCN(Cc2ccc(Nc3ncc(F)c(-c4cc(F)c5nc(C)n(C(C)C)c5c4)n3)nc2)CC1	5.78 µM	4.93 µM	4.09 µM	3.89 µM	4.05 µM	88.7%	90.8%	71.5%	95.8%	121%	10.4%	75.5%	83.4%	59.4%	70.9%	102%	5.08%	63.5%	60.7%	66.6%	viability, T/C [21]: 50.3%; viability, T/C [22]: 70%; viability, T/C [23]: 7.55%; viability, T/C [24]: 57%; viability, T/C [25]: 50.6%; viability, T/C [26]: 57.2%; viability, T/C [27]: 57.2%; viability, T/C [28]: 79.2%; viability, T/C [29]: 3.5%; viability, T/C [30]: 61.2%; viability, T/C [31]: 61.3%; viability, T/C [32]: 59.8%; viability, T/C [33]: 59.6%; viability, T/C [34]: 70.9%; viability, T/C [35]: 4.55%
